According to patent publication US20250171511A1, “ANTIVIRAL PEPTIDES AND METHODS OF USE THEREOF” (Versitech Limited, priority 2021, published 2025):
“Also recorded” adds a separate entry of the source. Where no end group is shown, it is not given here. 4MPA = not defined here

Key:
[1] = tested on: SARS-CoV-2; assay: Plaque reduction assay against SARS-CoV-2; format: cell-based
Method: Briefly, peptides were dissolved in PBS or 30mM phosphate buffer (PBS/5) containing 24.6 mM Na2HPO4 and 5.6 mM KH2PO4 at a pH of 7.4. Peptides or bovine serum albumin (BSA, 0.2-25.0 μg ml^−1) were premixed with SARS-CoV-2 at room temperature. After 45-60 min of incubation, peptide-virus mixture was transferred to Vero-E6 cells, correspondingly. At 1 h post infection, infectious media were removed, and 1% low melting agar was added to cells. Cells were fixed using 4% formalin at 2-3 day post infection. […] (0.1%) was added for staining, and the number of plaques was counted.

[2] = tested on: SARS-CoV-2; assay: Viral release assay; format: cell-based
[3] = tested on: SARS-CoV-2 (B.1.1.63); assay: Pre-exposure antiviral activity in hamsters; format: in vivo, hamster
[4] = tested on: Calu-3 cells; assay: MTT cytotoxicity assay in Calu-3 cells; format: cell-based
Method: Cytotoxicity of peptides was determined by the detection of 50% cytotoxic concentration (CC50) using a tetrazolium-based colorimetric MTT assay (H. Zhao, et al., Sci Rep, 6 (2016) 22008). Briefly, cells were seeded in 96-well cell culture plate at an initial density of 4×10^4 cells per well in DMEM supplemented with 10% FBS and incubated for overnight. Cell culture media were removed and then DMEM supplemented with various concentrations of peptides and 1% FBS were added to each well. After 24 h incubation at 37° C., MTT solution (5 mg ml^−1, 10 μl per well) was added to each well for incubation at 37° C. for 4 h. Then, 100 μl of 10% SDS in 0.01M HCl was added to each well. After further incubation at room temperature with shaking overnight, the plates were read at OD570 using VictorTM X3 Multilabel Reader (PerkinElmer, USA). Cell culture wells without peptides were used as the experiment control and medium only served as a blank control.

[5] = tested on: SARS-CoV-2; assay: Nucleoprotein (NP) immunofluorescence assay; format: cell-based; settings: VeroE6; virus pretreated; compared with untreated virus

GAICHPVFCPRRYKQIGTCGLPGTKCCKKP-4MPA (cysteine pairing not given here; reading uncertain; also: printed as GAICHPVFCPRRYKQIGTCGLPGTKCCKKP-4MPA) [Peptide 4H30]
IC50 ([1]; virus premixed with peptide in PBS, plaque reduction): 0.59 µg/mL
SARS-CoV-2 infection after dilution of treated virus ([1]; virus pretreated by 50 μg ml^−1, then 10,000-fold diluted (0.005 μg ml^−1)): significantly inhibited SARS-CoV-2 infection
intracellular replicative process [2]: not on the intracellular replicative process
viral release, viral load in supernatants [2]: significantly inhibit viral release; also recorded: significantly inhibited SARS-CoV-2 release
antiviral activity of 4H30 on viral release ([2]; 4H30 pretreated by CS or HS): significantly reduced
inhibitory activity of 4H30 on SARS-CoV-2 release ([2]; 4H30 with BSA): did not significantly affect
syncytia and epithelial cell disorder in bronchial tree ([3]; 4H30-0.05): not found
SARS-CoV-2 replication in lungs ([3]; hamster, in vivo): significantly inhibited SARS-CoV-2 replication
antiviral activity ([3]; hamster, in vivo): did not show antiviral activity
reduction of viral replication ([3]; hamster, in vivo): 2.3 fold
viral replication in lungs ([3]; hamster, in vivo): significantly inhibited viral replication
TC50 [4]: higher than 400 μg ml^−1
anti-NP staining, viral replication [5]: viral replication was significantly inhibited and restricted in very few cells
